# Experimental data taken from patent publication US20100003209A1, “Odor Blocking Water-Absorbent Compositions” (BASF SE, priority 2006, published 2010).
# Like-named read-outs stand apart in the source and are kept apart here.
# Legend:
# [1] = Centrifuge Retention Capacity (CRC), EDANA test method No. 441.2-02; assay type: physicochemical
# urease (from jack beans) = urease (from jack beans) (Canavalia ensiformis, UniProt P07374); conditions: 23° C.
# Procedure: The measurements should be carried out, unless otherwise stated, at an ambient temperature of 23±2° C. and a relative humidity of 50±10%. The water-absorbing polymers are thoroughly commixed prior to the measurement.
# To determine the odor-preventing effect, 2 g of each of the compositions produced above were placed in a 100 ml Erlenmeyer flask and admixed with a freshly prepared solution of 30 mg of urease (from jack beans; lyophilized 5 U/mg for urea assay in serum; Merck KGaA, Germany) and 50 ml of 0.9% sodium chloride solution, the sodium chloride solution containing 8.56 g/l of urea, and sealed with a stopper having an internal diffusion tubelet (Dräger® Röhrchen; ammonia 20/a-D, 20 to 1500 ppm*h). The measurement was discontinued after 6 hours. The test was carried out at 23° C.
# [2] = 0.0500% by weight in composition with polymer from Example 1 (55 mol % neutralized)
# [3] = 0.2000% by weight in composition with polymer from Example 1 (55 mol % neutralized)
# urease (from jack beans), sequence (P07374 whole entry, looked up): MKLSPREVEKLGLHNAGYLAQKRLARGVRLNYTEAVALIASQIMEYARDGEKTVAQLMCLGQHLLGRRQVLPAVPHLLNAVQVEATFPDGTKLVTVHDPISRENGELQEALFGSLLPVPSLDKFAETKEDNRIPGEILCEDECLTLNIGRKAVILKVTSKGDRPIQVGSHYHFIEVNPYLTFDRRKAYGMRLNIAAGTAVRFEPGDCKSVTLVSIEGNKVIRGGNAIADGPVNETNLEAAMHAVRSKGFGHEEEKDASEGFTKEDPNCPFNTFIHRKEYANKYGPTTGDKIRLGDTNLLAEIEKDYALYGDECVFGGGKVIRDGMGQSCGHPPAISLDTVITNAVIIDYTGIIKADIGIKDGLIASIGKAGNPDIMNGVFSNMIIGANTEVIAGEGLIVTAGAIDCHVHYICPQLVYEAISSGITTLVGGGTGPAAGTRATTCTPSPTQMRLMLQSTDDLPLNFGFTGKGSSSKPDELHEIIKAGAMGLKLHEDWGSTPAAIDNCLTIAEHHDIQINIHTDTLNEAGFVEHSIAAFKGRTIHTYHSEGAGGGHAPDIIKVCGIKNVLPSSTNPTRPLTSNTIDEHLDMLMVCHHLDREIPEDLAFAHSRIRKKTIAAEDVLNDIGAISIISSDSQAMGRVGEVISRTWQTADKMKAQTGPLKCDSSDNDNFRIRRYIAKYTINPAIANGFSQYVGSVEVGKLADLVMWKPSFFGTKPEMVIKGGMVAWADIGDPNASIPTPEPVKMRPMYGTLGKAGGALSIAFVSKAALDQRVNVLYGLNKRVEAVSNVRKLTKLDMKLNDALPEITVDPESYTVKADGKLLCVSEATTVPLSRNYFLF
structure (smiles),measurement,setting,value
[F-].[Na+] [sodium fluoride],CRC,[1]; [2],29.1 g/g
same,CRC,[1]; 0.0900% by weight in composition with polymer from Example 1 (55 mol % neutralized),28.5 g/g
same,CRC,[1]; [3],24.1 g/g
Oc1ccc(O)cc1 [hydroquinone],CRC,[1]; 0.0050% by weight in composition with polymer from Example 1 (55 mol % neutralized),28.5 g/g
same,CRC,[1]; [2],28.7 g/g
same,CRC,[1]; [3],25.3 g/g
same,CRC,[1]; 1.0000% by weight in composition with polymer from Example 1 (55 mol % neutralized),23.4 g/g
same,NH3 after 6 hours,"urease (from jack beans); 0.0025% by weight in composition, degree of neutralization 55 mol %",91 ppm
same,NH3 after 6 hours,"urease (from jack beans); 0.0025% by weight in composition, degree of neutralization 60 mol %",182 ppm
same,NH3 after 6 hours,"urease (from jack beans); 0.0025% by weight in composition, degree of neutralization 72 mol %",800 ppm
same,NH3 after 6 hours,"urease (from jack beans); 0.0050% by weight in composition, degree of neutralization 55 mol %",58 ppm
same,NH3 after 6 hours,"urease (from jack beans); 0.0050% by weight in composition, degree of neutralization 60 mol %",78 ppm
same,NH3 after 6 hours,"urease (from jack beans); 0.0050% by weight in composition, degree of neutralization 72 mol %",381 ppm
same,NH3 after 6 hours,"urease (from jack beans); 0.0100% by weight in composition, degree of neutralization 55 mol %",29 ppm
same,NH3 after 6 hours,"urease (from jack beans); 0.0100% by weight in composition, degree of neutralization 60 mol %",45 ppm
same,NH3 after 6 hours,"urease (from jack beans); 0.0100% by weight in composition, degree of neutralization 72 mol %",214 ppm
same,NH3 after 6 hours,"urease (from jack beans); 0.0200% by weight in composition, degree of neutralization 55 mol %",0 ppm
same,NH3 after 6 hours,"urease (from jack beans); 0.0200% by weight in composition, degree of neutralization 60 mol %",10 ppm
same,NH3 after 6 hours,"urease (from jack beans); 0.0200% by weight in composition, degree of neutralization 72 mol %",63 ppm
same,NH3 after 6 hours,"urease (from jack beans); 0.0500% by weight in composition, degree of neutralization 55 mol %",0 ppm
same,NH3 after 6 hours,"urease (from jack beans); 0.0500% by weight in composition, degree of neutralization 60 mol %",0 ppm
same,NH3 after 6 hours,"urease (from jack beans); 0.0500% by weight in composition, degree of neutralization 72 mol %",15 ppm
same,NH3 after 6 hours,"urease (from jack beans); 0.2000% by weight in composition, degree of neutralization 55 mol %",0 ppm
same,NH3 after 6 hours,"urease (from jack beans); 0.2000% by weight in composition, degree of neutralization 60 mol %",0 ppm
same,NH3 after 6 hours,"urease (from jack beans); 0.2000% by weight in composition, degree of neutralization 72 mol %",0 ppm
same,NH3 after 6 hours,"urease (from jack beans); 1.0000% by weight in composition, degree of neutralization 55 mol %",0 ppm
same,NH3 after 6 hours,"urease (from jack beans); 1.0000% by weight in composition, degree of neutralization 60 mol %",0 ppm
same,NH3 after 6 hours,"urease (from jack beans); 1.0000% by weight in composition, degree of neutralization 72 mol %",0 ppm
